Earlier results on one compound are cited in patent US20160367580A1, “IMPROVED EXTENDED-ACTION TILMICOSIN AND USE THEREOF IN TREATMENT OF BOVINE RESPIRATORY DISEASE COMPLEX (BRD) AND IN DRY COW PERIOD” (UNIVERSIDAD NACIONAL AUTONOMA DE MEXICO, priority 2014, published 2016).

For series [1] the following is noted: in vivo.
For series [2], the system named is Staphylococcus aureus. The settings on record: most of Staphylococcus aureus.

Turning to `CC[C@H]1OC(=O)C[C@@H](O)[C@H](C)[C@@H](O[C@@H]2O[C@H](C)[C@@H](O)[C@H](N(C)C)[C@H]2O)[C@@H](CCN2C[C@H](C)C[C@H](C)C2)C[C@@H](C)C(=O)/C=C/C(C)=C/[C@@H]1CO[C@@H]1O[C@H](C)[C@@H](O)[C@@H](OC)[C@H]1OC` [tilmicosin], the “plasma concentration not to be exceeded (cardiotoxicity with tachycardia)” value in series [1] is not above 4000 ng/mL. Also, in series [2], the CMI value was less than 1.0 µg/mL.
